Measurements from patent publication US20230117592A1 (SRI International, priority 2019, published 2023).
pIC50: −log10 of the molar value. Where “and” joins values, the source holds several entries; their conditions need not be identical. Identical values can stand only once. Like-named read-outs stand apart in the source and are kept apart here.

What was measured:
5-LOX = biological target: T1, 5-LOX (Homo sapiens, UniProt P09917); test: 5-LOX fluorescent assay (in vitro lipoxygenase inhibition); assay type: biochemical; details: recombinant 5-LOX cell lysate, 20 μM AA, DHR123 fluorescence; several values in a cell = repeat determinations; read-out: IC50 (μM) values for in vitro lipoxygenase inhibition, 5-LOX
T1 sequence (P09917 1-674): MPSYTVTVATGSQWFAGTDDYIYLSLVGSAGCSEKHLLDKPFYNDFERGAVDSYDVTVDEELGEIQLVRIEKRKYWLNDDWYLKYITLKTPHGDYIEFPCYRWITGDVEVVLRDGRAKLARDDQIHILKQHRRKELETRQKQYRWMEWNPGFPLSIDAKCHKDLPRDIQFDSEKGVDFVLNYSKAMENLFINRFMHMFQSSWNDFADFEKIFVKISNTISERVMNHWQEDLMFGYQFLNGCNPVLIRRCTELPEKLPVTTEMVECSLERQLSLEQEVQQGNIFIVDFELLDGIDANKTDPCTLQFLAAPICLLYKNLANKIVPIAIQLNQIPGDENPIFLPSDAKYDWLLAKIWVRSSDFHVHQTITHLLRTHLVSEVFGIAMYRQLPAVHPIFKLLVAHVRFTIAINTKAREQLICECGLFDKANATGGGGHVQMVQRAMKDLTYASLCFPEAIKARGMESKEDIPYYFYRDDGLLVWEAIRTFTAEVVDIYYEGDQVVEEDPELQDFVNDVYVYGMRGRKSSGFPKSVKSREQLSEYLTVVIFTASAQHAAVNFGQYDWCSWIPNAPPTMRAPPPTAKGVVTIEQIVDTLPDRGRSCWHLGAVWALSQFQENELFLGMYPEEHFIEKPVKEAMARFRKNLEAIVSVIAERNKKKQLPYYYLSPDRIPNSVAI
Procedure: 5-LOX FI assay Fluorescent Assay
The enzyme assay (100 μL) contained 50 mM Tris, pH 7.5, 0.1 mM EDTA, 0.3 mM CaCl2, 20 μM AA, 100 μM ATP, 1 μM DHR123, and recombinant 5-LOX cell lysate (0.5 μL/100 μL). Inhibitors (dissolved in DMSO) were plated at 1 μL into 96-well assay microplates followed by a 40 μL addition of a solution containing 5-LOX enzyme. Enzyme was pre-incubated with compounds for 15 mins. The assay was initiated by the addition of a 40 μL substrate solution containing AA and ATP, and 20 μL addition of a solution containing DHR123. […] Percent inhibition was calculated for each compound dose for IC50 curve fitting using 4 Parameter Logistic Model or Sigmoidal Dose-Response Model.

12-LOX = biological target: T2, 12-LOX (Homo sapiens, UniProt P18054); test: 12-LOX fluorescent assay (in vitro lipoxygenase inhibition); assay type: biochemical; details: for IC50: 100 nM recombinant 12-LOX, 20 μM AA, DHR123 fluorescence, several values in a cell = repeat determinations, read-out: IC50 (μM) values for in vitro lipoxygenase inhibition, 12-LOX
T2 sequence (P18054 1-663): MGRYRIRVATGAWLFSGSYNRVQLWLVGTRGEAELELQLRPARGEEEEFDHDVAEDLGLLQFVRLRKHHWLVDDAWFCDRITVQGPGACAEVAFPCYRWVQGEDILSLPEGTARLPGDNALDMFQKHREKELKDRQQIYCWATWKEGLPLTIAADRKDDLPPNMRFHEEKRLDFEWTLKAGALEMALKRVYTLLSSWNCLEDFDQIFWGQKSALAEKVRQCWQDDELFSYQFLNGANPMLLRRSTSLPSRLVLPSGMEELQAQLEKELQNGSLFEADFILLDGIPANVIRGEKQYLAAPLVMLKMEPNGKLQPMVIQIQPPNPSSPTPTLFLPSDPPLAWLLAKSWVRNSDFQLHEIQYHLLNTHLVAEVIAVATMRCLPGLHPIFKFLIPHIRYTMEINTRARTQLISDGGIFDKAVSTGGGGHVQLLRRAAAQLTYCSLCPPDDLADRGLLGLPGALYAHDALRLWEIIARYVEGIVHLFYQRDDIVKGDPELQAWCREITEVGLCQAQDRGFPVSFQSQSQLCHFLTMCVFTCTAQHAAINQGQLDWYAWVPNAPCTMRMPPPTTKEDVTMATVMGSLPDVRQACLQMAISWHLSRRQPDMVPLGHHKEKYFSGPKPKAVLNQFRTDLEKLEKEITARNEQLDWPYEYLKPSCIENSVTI
Procedure: 12-LOX/15-LOX Fluorescent Assay
The enzyme assay (100 ul) contained 50 mM Tris, pH 7.5, 0.05% Tween-20, 20 μM AA/LA, 1 μM DHR123, and 100 nM recombinant 12-LOX enzyme/50 nM recombinant 15-LOX enzyme. Inhibitors (dissolved in DMSO) were plated at 1 μL into 96-well assay microplates followed by a 40 μL addition of a solution containing 12-LOX/15-LOX enzyme. Enzyme was pre-incubated with compounds for 15 mins. The assay was initiated by the addition of a 40 μL substrate solution containing AA/LA, and 20μL addition of a solution containing DHR123. […] Percent inhibition was calculated for each compound dose for IC50 curve fitting using 4 Parameter Logistic Model or Sigmoidal Dose-Response Model.

| Structure (SMILES) | IC50 (5-LOX) | IC50 (12-LOX) | pIC50 (12-LOX) |
| --- | --- | --- | --- |
| Fc1ccc(Nc2ccc(-c3ccc(Cl)cc3)c(NCCn3cncn3)c2)cc1 [SS20308-0181-01, N^2-(2-(1H-1,2,4-triazol-1-yl)ethyl)-4′-chloro-N^4-(4-fluorophenyl)biphenyl-2,4-diamine] | 0.16 µM | 0.16 µM |  |
| c1ccc(CNc2cc(-c3ccccc3)c(NCCn3cncn3)cn2)cc1 [SS20308-0213-01, N^5-(2-(1H-1,2,4-triazol-1-yl)ethyl)-N^2-benzyl-4-phenylpyridine-2,5-diamine] | 0.61 µM | 0.08 µM |  |
| c1ccc(Nc2ccc(-c3cccc4c3NCC4)c(NCCn3cncn3)c2)cc1 [SS20308-0166-01, N^3-(2-(1H-1,2,4-triazol-1-yl)ethyl)-4-(indolin-7-yl)-N^1-phenylbenzene-1,3-diamine] | 0.14 µM | 0.07 µM |  |
| Cc1ccc(NCc2ccc(F)cc2)cc1NCCCn1cncn1 [SS20308-0237-01, N^3-(3-(1H-1,2,4-triazol-1-yl)propyl)-N^1-(4-fluorobenzyl)-4-methylbenzene-1,3-diamine] | 0.28 µM | 0.18 µM |  |
| c1ccc(Nc2ccc(-c3ccccc3)c(NCCn3cncn3)c2)cc1 [SS20308-0095-01, N^2-(2-(1H-1,2,4-triazol-1-yl)ethyl)-N^4-phenylbiphenyl-2,4-diamine] | 0.35 µM |  | 6.74 |
| Fc1ccc(C(Nc2ccc(NCCn3cncn3)cc2)C(F)(F)F)cc1 (stereo not drawn) [SS20308-0232-01, N^1-(2-(1H-1,2,4-triazol-1-yl)ethyl)-N^4-(2,2,2-trifluoro-1-(4-fluorophenyl)ethyl)benzene-1,4-diamine] | 0.69 µM | 0.14 µM |  |
| c1ccc(CNc2ccc(-c3ccccc3)c(NCCn3cncn3)n2)cc1 [SS20308-0221-01, N^2-(2-(1H-1,2,4-triazol-1-yl)ethyl)-N^6-benzyl-3-phenylpyridine-2,6-diamine] | 0.66 µM | 0.11 µM |  |
| c1ccc(CNc2ccc(NCCn3cncn3)c(-c3ccccc3)n2)cc1 [SS20308-0214-01, N^5-(2-(1H-1,2,4-triazol-1-yl)ethyl)-N^2-benzyl-6-phenylpyridine-2,5-diamine] | 0.16 µM | 0.05 µM |  |
| c1ccc(Nc2ccc(-c3ccccc3)c(NCCn3cncn3)n2)cc1 [SS20308-0175-01, N^2-(2-(1H-1,2,4-triazol-1-yl)ethyl)-N^6,3-diphenylpyridine-2,6-diamine] | 0.32 µM | 0.26 µM |  |
| c1ccc(Nc2ccc(-c3ccn[nH]3)c(NCCn3cncn3)c2)cc1 [SS20308-0189-01, N^3-(2-(1H-1,2,4-triazol-1-yl)ethyl)-N^1-phenyl-4-(1H-pyrazol-5-yl)benzene-1,3-diamine] | 0.17 µM and 0.28 µM | 0.08 µM and 0.15 µM |  |
| Cc1cc(Nc2ccc(Cl)c(F)c2)ccc1NCC1(Cn2cccn2)COC1 [SS20308-0327-01, N1-((3-((1H-pyrazol-1-yl)methyl)oxetan-3-yl)methyl)-N4-(4-chloro-3-fluorophenyl)-2-methylbenzene-1,4-diamine] | 0.07 µM | 0.04 µM |  |
| CN(C)CC1(CNc2cc(Nc3ccc(F)cc3)ccc2-c2ccccc2)COC1 [SS20308-0184-01, N^2-((3-((dimethylamino)methyl)oxetan-3-yl)methyl)-N^4-(4-fluorophenyl)biphenyl-2,4-diamine] | 0.16 µM | 0.18 µM |  |
| CN(CCn1cncn1)c1cc(Nc2ccccc2)ccc1-c1ccccc1 [SS20308-0131-01, N2-(2-(1H-1,2,4-triazol-1-yl)ethyl)-N2-methyl-N4-phenyl-[1,1′-biphenyl]-2,4-diamine] | 0.25 µM |  |  |
| Cc1cc(Nc2ccc(F)cc2Cl)ccc1NCC1(CN2CCCC2)COC1 [SS20308-0310-01, N^4-(2-chloro-4-fluorophenyl)-2-methyl-N^1-((3-(pyrrolidin-1-ylmethyl)oxetan-3-yl)methyl)benzene-1,4-diamine] | 0.11 µM and 0.14 µM and 0.1 µM and 0.19 µM and 0.29 µM |  |  |
| Fc1c(Nc2ccccc2)ccc(-c2ccccc2)c1NCCn1cncn1 [SS20308-0148-01, N^2-(2-(1H-1,2,4-triazol-1-yl)ethyl)-3-fluoro-N^4-phenylbiphenyl-2,4-diamine] | 3.77 µM and 0.76 µM |  |  |
